# In the NIST ThermoML archive (doi:10.1016/j.jct.2019.02.020):
# ± gives the expanded uncertainty stated by the source.
# Experiment: mn = molality of the nth substance listed, in mol/kg
# Settings: 100 kPa, Liquid; for viscosity: Falling or rolling sphere viscometry; for mass density: Vibrating tube method
smiles,measurement,setting,value
O=S(=O)(O)O [sulfuric acid] + O,viscosity,"303.15 K, m1 = 0.05",0.8093 ± 0.081 mPa·s
same,viscosity,"303.15 K, m1 = 0.1",0.8127 ± 0.081 mPa·s
same,viscosity,"303.15 K, m1 = 0.1498",0.8218 ± 0.082 mPa·s
same,viscosity,"303.15 K, m1 = 0.1997",0.8307 ± 0.083 mPa·s
same,viscosity,"303.15 K, m1 = 0.2501",0.8376 ± 0.084 mPa·s
same,viscosity,"303.15 K, m1 = 0.2999",0.8489 ± 0.085 mPa·s
same,viscosity,"303.15 K, m1 = 0.3312",0.8561 ± 0.086 mPa·s
same,viscosity,"303.15 K, m1 = 0.3996",0.8615 ± 0.086 mPa·s
same,viscosity,"303.15 K, m1 = 0.5001",0.8719 ± 0.087 mPa·s
same,viscosity,"303.15 K, m1 = 0.6672",0.9256 ± 0.093 mPa·s
same,viscosity,"303.15 K, m1 = 0.9962",0.9448 ± 0.095 mPa·s
same,viscosity,"303.15 K, m1 = 1.331",1.026 ± 0.1 mPa·s
same,viscosity,"303.15 K, m1 = 1.669",1.073 ± 0.11 mPa·s
same,viscosity,"303.15 K, m1 = 2",1.123 ± 0.11 mPa·s
same,viscosity,"303.15 K, m1 = 2.327",1.179 ± 0.12 mPa·s
same,viscosity,"303.15 K, m1 = 2.667",1.244 ± 0.12 mPa·s
same,viscosity,"303.15 K, m1 = 2.994",1.319 ± 0.13 mPa·s
same,viscosity,"303.15 K, m1 = 3.33",1.374 ± 0.14 mPa·s
same,viscosity,"303.15 K, m1 = 3.667",1.429 ± 0.14 mPa·s
same,mass density,"303.15 K, m1 = 0.05",998.96 ± 24 kg/m3
same,mass density,"303.15 K, m1 = 0.1",1002.07 ± 24 kg/m3
same,mass density,"303.15 K, m1 = 0.1498",1005.1 ± 24 kg/m3
same,mass density,"303.15 K, m1 = 0.1997",1008.12 ± 24 kg/m3
same,mass density,"303.15 K, m1 = 0.2501",1011.07 ± 24 kg/m3
same,mass density,"303.15 K, m1 = 0.2999",1014.11 ± 24 kg/m3
same,mass density,"303.15 K, m1 = 0.3312",1015.94 ± 24 kg/m3
same,mass density,"303.15 K, m1 = 0.3996",1019.95 ± 24 kg/m3
same,mass density,"303.15 K, m1 = 0.5001",1025.74 ± 25 kg/m3
same,mass density,"303.15 K, m1 = 0.6672",1035.36 ± 25 kg/m3
same,mass density,"303.15 K, m1 = 0.9962",1053.74 ± 25 kg/m3
same,mass density,"303.15 K, m1 = 1.331",1071.78 ± 26 kg/m3
same,mass density,"303.15 K, m1 = 1.669",1089.37 ± 26 kg/m3
same,mass density,"303.15 K, m1 = 2",1106.08 ± 27 kg/m3
same,mass density,"303.15 K, m1 = 2.327",1122.01 ± 27 kg/m3
same,mass density,"303.15 K, m1 = 2.667",1138.64 ± 27 kg/m3
same,mass density,"303.15 K, m1 = 2.994",1155.01 ± 28 kg/m3
same,mass density,"303.15 K, m1 = 3.33",1167.41 ± 28 kg/m3
same,mass density,"303.15 K, m1 = 3.667",1181.92 ± 28 kg/m3
same,viscosity,"308.15 K, m1 = 0.05",0.7303 ± 0.073 mPa·s
same,viscosity,"308.15 K, m1 = 0.1",0.7339 ± 0.074 mPa·s
same,viscosity,"308.15 K, m1 = 0.1498",0.7412 ± 0.074 mPa·s
same,viscosity,"308.15 K, m1 = 0.1997",0.7497 ± 0.075 mPa·s
same,viscosity,"308.15 K, m1 = 0.2501",0.7567 ± 0.076 mPa·s
same,viscosity,"308.15 K, m1 = 0.2999",0.7652 ± 0.077 mPa·s
same,viscosity,"308.15 K, m1 = 0.3312",0.7753 ± 0.078 mPa·s
same,viscosity,"308.15 K, m1 = 0.3996",0.7799 ± 0.078 mPa·s
same,viscosity,"308.15 K, m1 = 0.5001",0.7884 ± 0.079 mPa·s
same,viscosity,"308.15 K, m1 = 0.6672",0.8371 ± 0.084 mPa·s
same,viscosity,"308.15 K, m1 = 0.9962",0.8554 ± 0.086 mPa·s
same,viscosity,"308.15 K, m1 = 1.331",0.9337 ± 0.094 mPa·s
same,viscosity,"308.15 K, m1 = 1.669",0.9775 ± 0.098 mPa·s
same,viscosity,"308.15 K, m1 = 2",1.016 ± 0.1 mPa·s
same,viscosity,"308.15 K, m1 = 2.327",1.059 ± 0.11 mPa·s
same,viscosity,"308.15 K, m1 = 2.667",1.116 ± 0.11 mPa·s
same,viscosity,"308.15 K, m1 = 2.994",1.188 ± 0.12 mPa·s
same,viscosity,"308.15 K, m1 = 3.33",1.238 ± 0.12 mPa·s
same,viscosity,"308.15 K, m1 = 3.667",1.29 ± 0.13 mPa·s
same,mass density,"308.15 K, m1 = 0.05",997.29 ± 24 kg/m3
same,mass density,"308.15 K, m1 = 0.1",1000.35 ± 24 kg/m3
same,mass density,"308.15 K, m1 = 0.1498",1003.35 ± 24 kg/m3
same,mass density,"308.15 K, m1 = 0.1997",1006.33 ± 24 kg/m3
same,mass density,"308.15 K, m1 = 0.2501",1009.25 ± 24 kg/m3
same,mass density,"308.15 K, m1 = 0.2999",1012.25 ± 24 kg/m3
same,mass density,"308.15 K, m1 = 0.3996",1018.02 ± 24 kg/m3
same,mass density,"308.15 K, m1 = 0.5001",1023.74 ± 25 kg/m3
same,viscosity,"313.15 K, m1 = 0.05",0.6585 ± 0.066 mPa·s
same,viscosity,"313.15 K, m1 = 0.1",0.6663 ± 0.067 mPa·s
same,viscosity,"313.15 K, m1 = 0.1498",0.6726 ± 0.067 mPa·s
same,viscosity,"313.15 K, m1 = 0.1997",0.6808 ± 0.068 mPa·s
same,viscosity,"313.15 K, m1 = 0.2501",0.6869 ± 0.069 mPa·s
same,viscosity,"313.15 K, m1 = 0.2999",0.698 ± 0.07 mPa·s
same,viscosity,"313.15 K, m1 = 0.3312",0.7043 ± 0.071 mPa·s
same,viscosity,"313.15 K, m1 = 0.3996",0.7078 ± 0.071 mPa·s
same,viscosity,"313.15 K, m1 = 0.5001",0.716 ± 0.072 mPa·s
same,viscosity,"313.15 K, m1 = 0.6672",0.7631 ± 0.077 mPa·s
same,viscosity,"313.15 K, m1 = 0.9962",0.7748 ± 0.078 mPa·s
same,viscosity,"313.15 K, m1 = 1.331",0.8534 ± 0.086 mPa·s
same,viscosity,"313.15 K, m1 = 1.669",0.8905 ± 0.089 mPa·s
same,viscosity,"313.15 K, m1 = 2",0.9243 ± 0.093 mPa·s
same,viscosity,"313.15 K, m1 = 2.327",0.9706 ± 0.097 mPa·s
same,viscosity,"313.15 K, m1 = 2.667",1.019 ± 0.1 mPa·s
same,viscosity,"313.15 K, m1 = 2.994",1.077 ± 0.11 mPa·s
same,viscosity,"313.15 K, m1 = 3.33",1.125 ± 0.11 mPa·s
same,viscosity,"313.15 K, m1 = 3.667",1.171 ± 0.12 mPa·s
same,mass density,"313.15 K, m1 = 0.05",995.42 ± 24 kg/m3
same,mass density,"313.15 K, m1 = 0.1",998.45 ± 24 kg/m3
same,mass density,"313.15 K, m1 = 0.1498",1001.41 ± 24 kg/m3
same,mass density,"313.15 K, m1 = 0.1997",1004.36 ± 24 kg/m3
same,mass density,"313.15 K, m1 = 0.2501",1007.25 ± 24 kg/m3
same,mass density,"313.15 K, m1 = 0.2999",1010.22 ± 24 kg/m3
same,mass density,"313.15 K, m1 = 0.3996",1015.94 ± 24 kg/m3
same,mass density,"313.15 K, m1 = 0.5001",1021.61 ± 25 kg/m3
same,viscosity,"318.15 K, m1 = 0.05",0.6063 ± 0.061 mPa·s
same,viscosity,"318.15 K, m1 = 0.1",0.6087 ± 0.061 mPa·s
same,viscosity,"318.15 K, m1 = 0.1498",0.6141 ± 0.062 mPa·s
same,viscosity,"318.15 K, m1 = 0.1997",0.6219 ± 0.062 mPa·s
same,viscosity,"318.15 K, m1 = 0.2501",0.6274 ± 0.063 mPa·s
same,viscosity,"318.15 K, m1 = 0.2999",0.6362 ± 0.064 mPa·s
same,viscosity,"318.15 K, m1 = 0.3312",0.6443 ± 0.065 mPa·s
same,viscosity,"318.15 K, m1 = 0.3996",0.6502 ± 0.065 mPa·s
same,viscosity,"318.15 K, m1 = 0.5001",0.6543 ± 0.066 mPa·s
same,viscosity,"318.15 K, m1 = 0.6672",0.6978 ± 0.07 mPa·s
same,viscosity,"318.15 K, m1 = 0.9962",0.7101 ± 0.071 mPa·s
same,viscosity,"318.15 K, m1 = 1.331",0.7819 ± 0.078 mPa·s
same,viscosity,"318.15 K, m1 = 1.669",0.8167 ± 0.082 mPa·s
same,viscosity,"318.15 K, m1 = 2",0.8473 ± 0.085 mPa·s
same,viscosity,"318.15 K, m1 = 2.327",0.8914 ± 0.089 mPa·s
same,viscosity,"318.15 K, m1 = 2.667",0.9455 ± 0.095 mPa·s
same,viscosity,"318.15 K, m1 = 2.994",0.9872 ± 0.099 mPa·s
same,viscosity,"318.15 K, m1 = 3.33",1.027 ± 0.1 mPa·s
same,viscosity,"318.15 K, m1 = 3.667",1.07 ± 0.11 mPa·s
same,mass density,"318.15 K, m1 = 0.05",993.38 ± 24 kg/m3
same,mass density,"318.15 K, m1 = 0.1",996.37 ± 24 kg/m3
same,mass density,"318.15 K, m1 = 0.1498",999.3 ± 24 kg/m3
same,mass density,"318.15 K, m1 = 0.1997",1002.21 ± 24 kg/m3
same,mass density,"318.15 K, m1 = 0.2501",1005.09 ± 24 kg/m3
same,mass density,"318.15 K, m1 = 0.2999",1008.03 ± 24 kg/m3
same,mass density,"318.15 K, m1 = 0.3996",1013.7 ± 24 kg/m3
same,mass density,"318.15 K, m1 = 0.5001",1019.32 ± 24 kg/m3
